Measured values taken from patent US8178668B2, “2-aminopyridine kinase inhibitors” (OSI Pharmaceuticals, LLC, priority 2008, dated 2012).
pIC50: −log10 of the molar value. Structures can show the parent of a compound that is named as a salt.

Columns and labels:
MET (human) = MET (human) (Homo sapiens, UniProt P08581); assay: MET kinase AlphaScreen assay (Km of ATP); type: biochemical; conditions: ATP at Km; at least duplicate experiments
Method in brief: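 AlphaScreen detection with PT66 beads (1 h) follows a 60 min room-temperature MET reaction. Substrate is 200 ng/μL biotinylated poly(Glu,Tyr), with ATP set at an enzyme-optimized concentration. Buffer is HEPES pH 7.4 with MgCl2, MnCl2 and 0.334 mM vanadate, compounds at 1% DMSO.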

RON (human) = RON (human) (Homo sapiens, UniProt Q04912); assay: RON kinase AlphaScreen assay (Km of ATP); type: biochemical; conditions: ATP at Km; at least duplicate experiments
Method in brief: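 AlphaScreen with PT66 donor/acceptor beads, read after 1 h, detected phosphorylation of biotinylated poly(Glu,Tyr) by human RON. Enzyme-started reactions ran 30 min at room temperature with ATP at Km. Buffer was HEPES pH 7.4 with MgCl2, glycerol, vanadate and 1% DMSO.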

Chain of RON (human) (Q04912 25-1400): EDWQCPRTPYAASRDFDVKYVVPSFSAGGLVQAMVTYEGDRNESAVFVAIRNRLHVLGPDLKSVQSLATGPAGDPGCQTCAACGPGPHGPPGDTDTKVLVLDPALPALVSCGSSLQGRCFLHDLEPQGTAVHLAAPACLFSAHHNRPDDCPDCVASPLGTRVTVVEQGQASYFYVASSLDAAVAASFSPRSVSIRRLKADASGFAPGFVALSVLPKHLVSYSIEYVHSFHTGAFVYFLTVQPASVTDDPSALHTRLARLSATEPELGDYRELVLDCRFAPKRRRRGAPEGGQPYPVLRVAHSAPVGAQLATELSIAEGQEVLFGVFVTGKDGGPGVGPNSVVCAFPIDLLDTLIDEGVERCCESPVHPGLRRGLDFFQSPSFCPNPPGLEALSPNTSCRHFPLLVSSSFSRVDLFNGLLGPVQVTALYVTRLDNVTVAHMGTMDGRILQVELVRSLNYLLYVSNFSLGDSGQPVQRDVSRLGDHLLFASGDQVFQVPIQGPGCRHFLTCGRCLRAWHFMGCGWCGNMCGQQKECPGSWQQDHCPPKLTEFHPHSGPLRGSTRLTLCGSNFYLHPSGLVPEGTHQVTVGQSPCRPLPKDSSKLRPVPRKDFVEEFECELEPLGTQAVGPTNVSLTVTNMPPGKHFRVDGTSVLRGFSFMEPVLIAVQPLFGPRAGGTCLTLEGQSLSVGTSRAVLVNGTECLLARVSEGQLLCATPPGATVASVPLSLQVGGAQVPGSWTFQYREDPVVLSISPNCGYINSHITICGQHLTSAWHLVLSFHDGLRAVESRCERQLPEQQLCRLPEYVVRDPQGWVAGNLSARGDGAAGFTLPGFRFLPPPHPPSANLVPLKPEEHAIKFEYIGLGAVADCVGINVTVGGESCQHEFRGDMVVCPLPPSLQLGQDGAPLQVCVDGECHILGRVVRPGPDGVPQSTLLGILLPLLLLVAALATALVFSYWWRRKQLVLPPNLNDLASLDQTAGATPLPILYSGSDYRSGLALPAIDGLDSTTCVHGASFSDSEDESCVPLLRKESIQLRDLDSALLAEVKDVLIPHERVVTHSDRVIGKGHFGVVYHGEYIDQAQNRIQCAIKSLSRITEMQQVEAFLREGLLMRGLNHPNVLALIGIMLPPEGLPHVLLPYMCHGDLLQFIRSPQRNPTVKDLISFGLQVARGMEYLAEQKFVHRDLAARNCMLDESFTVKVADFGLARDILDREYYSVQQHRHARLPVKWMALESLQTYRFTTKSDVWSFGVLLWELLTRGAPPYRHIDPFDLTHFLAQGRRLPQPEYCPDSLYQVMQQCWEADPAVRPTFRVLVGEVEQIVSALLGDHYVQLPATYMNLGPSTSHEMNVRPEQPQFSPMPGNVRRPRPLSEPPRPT
Chain of MET (human) (P08581 25-1390): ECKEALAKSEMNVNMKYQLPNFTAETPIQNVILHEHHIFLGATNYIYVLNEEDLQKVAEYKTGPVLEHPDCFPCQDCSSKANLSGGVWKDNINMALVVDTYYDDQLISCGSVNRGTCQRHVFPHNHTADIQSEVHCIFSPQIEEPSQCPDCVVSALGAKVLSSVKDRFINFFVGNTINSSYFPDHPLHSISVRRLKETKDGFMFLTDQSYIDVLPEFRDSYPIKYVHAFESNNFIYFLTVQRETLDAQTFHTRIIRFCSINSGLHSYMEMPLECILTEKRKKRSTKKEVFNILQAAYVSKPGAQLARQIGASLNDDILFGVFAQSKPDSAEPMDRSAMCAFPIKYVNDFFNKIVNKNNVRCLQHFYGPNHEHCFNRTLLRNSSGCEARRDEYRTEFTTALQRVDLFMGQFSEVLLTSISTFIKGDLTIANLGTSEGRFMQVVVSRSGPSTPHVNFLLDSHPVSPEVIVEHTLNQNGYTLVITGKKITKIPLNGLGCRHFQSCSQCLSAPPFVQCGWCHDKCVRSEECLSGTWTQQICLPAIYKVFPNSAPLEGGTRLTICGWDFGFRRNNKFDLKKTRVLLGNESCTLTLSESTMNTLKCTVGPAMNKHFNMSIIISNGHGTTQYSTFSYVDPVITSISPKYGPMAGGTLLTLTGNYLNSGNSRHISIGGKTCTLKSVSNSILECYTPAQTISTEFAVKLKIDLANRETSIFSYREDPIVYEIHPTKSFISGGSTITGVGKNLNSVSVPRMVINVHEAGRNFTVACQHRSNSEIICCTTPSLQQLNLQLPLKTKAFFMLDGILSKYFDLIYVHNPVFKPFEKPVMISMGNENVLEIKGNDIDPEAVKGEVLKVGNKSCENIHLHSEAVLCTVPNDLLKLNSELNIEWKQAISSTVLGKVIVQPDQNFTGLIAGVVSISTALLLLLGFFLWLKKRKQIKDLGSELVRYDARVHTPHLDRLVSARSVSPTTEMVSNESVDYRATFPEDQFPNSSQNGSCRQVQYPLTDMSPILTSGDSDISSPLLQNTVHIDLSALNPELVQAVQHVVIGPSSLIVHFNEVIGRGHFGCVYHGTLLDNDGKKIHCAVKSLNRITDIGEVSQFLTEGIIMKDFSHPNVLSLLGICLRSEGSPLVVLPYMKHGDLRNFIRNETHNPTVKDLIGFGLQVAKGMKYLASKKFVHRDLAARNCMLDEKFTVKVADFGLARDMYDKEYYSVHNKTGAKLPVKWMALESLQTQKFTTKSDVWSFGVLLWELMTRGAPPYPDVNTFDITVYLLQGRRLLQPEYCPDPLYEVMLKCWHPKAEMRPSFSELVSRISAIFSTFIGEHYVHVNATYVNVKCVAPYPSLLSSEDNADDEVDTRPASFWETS

Row | pIC50 (MET (human)) | pIC50 (RON (human)) | SMILES
1 | 6.00 to 7.00 | 4.70 to 6.00 | NC(=O)CCn1cc(-c2cnc(N)c(-c3nc4ccccc4s3)c2)cn1 [Example 297, 3-[4-(6-Amino-5-benzothiazol-2-ylpyridin-3-yl)-pyrazol-1-yl]-propionamide]
2 | ≥ 7.00 | ≥ 7.00 | Nc1ncc(-c2cnn(C3CCNCC3)c2)cc1-c1nc2c(s1)CCCC2 [Example 298, 5-(1-Piperidin-4-yl-1H-pyrazol-4-yl)-3-(4,5,6,7-tetrahydro-benzothiazol-2-yl)-pyridin-2-ylamine]
3 | 6.00 to 7.00 | 6.00 to 7.00 | Nc1ncc(-c2cnn(C3CCNCC3)c2)cc1-c1nc2c(s1)CCCCC2 [Example 299, 5-(1-Piperidin-4-yl-1H-pyrazol-4-yl)-3-(5,6,7,8-tetrahydro-4H-cycloheptathiazol-2-yl)-pyridin-2-ylamine]
4 | 6.00 to 7.00 | 4.70 to 6.00 | Nc1ncc(-c2cnn(C3CCNCC3)c2)cc1N1CCc2ccccc2C1 [Example 300, 3-(3,4-Dihydro-1H-isoquinolin-2-yl)-5-(1-piperidin-4-yl-1H-pyrazol-4-yl)-pyridin-2-ylamine]
5 | 4.70 to 6.00 | 4.70 to 6.00 | Nc1ncc(-c2cnn(C3CCNCC3)c2)cc1N1CCc2c(F)cccc2C1 [Example 301, 3-(5-Fluoro-3,4-dihydro-1H-isoquinolin-2-yl)-5-(1-piperidin-4-yl-1H-pyrazol-4-yl)-pyridin-2-ylamine]
6 | 6.00 to 7.00 | 6.00 to 7.00 | Nc1ncc(-c2cnn(C3CCNCC3)c2)cc1N1CCc2c(Cl)cccc2C1 [Example 302, 3-(5-Chloro-3,4-dihydro-1H-isoquinolin-2-yl)-5-(1-piperidin-4-yl-1H-pyrazol-4-yl)-pyridin-2-ylamine]
7 | 6.00 to 7.00 | 6.00 to 7.00 | Nc1ncc(-c2cnn(C3CCNCC3)c2)cc1N1CCc2c(F)ccc(F)c2C1 [Example 303, 3-(5,8-Difluoro-3,4-dihydro-1H-isoquinolin-2-yl)-5-(1-piperidin-4-yl-1H-pyrazol-4-yl)-pyridin-2-ylamine]
8 | 6.00 to 7.00 | 4.70 to 6.00 | Nc1ncc(-c2cnn(C3CCNCC3)c2)cc1-c1ccc2ccccc2c1 [Example 304, 3-Naphthalen-2-yl-5-(1-piperidin-4-yl-1H-pyrazol-4-yl)-pyridin-2-ylamine trihydrochloride]
